Data on eleven compounds can be found in paper PMC7075364, “Synthesis and biological evaluation of small molecule modulators of CDK8/Cyclin C complex with phenylaminoquinoline scaffold” (PeerJ, 2020).

In one data set the target is T1, CDK8/CycC (Homo sapiens, UniProt P49336).
T1 construct: purchased Reaction Biology Corp. (Kinase HotSpot service)
As to the kind of experiment: In vitro kinase inhibition assay (Reaction Biology HotSpot, 10 dose IC50 singlet). The data set is classed as biochemical. The settings on record: for IC50 / inhibition at 20 µM: CDK8/CycC; for IC50: 10 dose IC50 singlet assay; for inhibition at 20 µM: compound at 20 µM, read-out: % enzyme inhibition ± SD (20 µM). As to the method:
Reaction Biology Corp. Kinase HotSpotSM service (http://www.reactionbiology.com) was used for the screening of tested compounds. […] Activity of kinases were assessed by the HotSpot assay platform, which contained specific kinase/substrate pairs along with required cofactors ([Abdelazem et al., 2015]; [Abdelazem et al., 2016]; [Al-Sanea et al., 2016a]; [Al-Sanea et al., 2015a]; [Al-Sanea et al., 2015b]; [Al-Sanea, El-Deeb & Lee, 2013]; [Park et al., 2014]).
The newly prepared phenylaminoquinolines 5a–i were biologically evaluated as potential CDK8/CycC complex inhibitors.

The test system of data set [1] is acute myeloid leukemia (AML). Further details: method as in earlier work. The settings on record: ref Cee et al., 2009, Crown, 2017, Pelish et al., 2015, Rzymski et al.; cited from earlier work.
For a further data set, the system named is CDK8. The settings on record: cited from earlier work.

Entries after “also recorded” stand apart in the source; their conditions may differ. Read-outs that look alike come from different tables or passages of the source.

T1 sequence (P49336 whole entry): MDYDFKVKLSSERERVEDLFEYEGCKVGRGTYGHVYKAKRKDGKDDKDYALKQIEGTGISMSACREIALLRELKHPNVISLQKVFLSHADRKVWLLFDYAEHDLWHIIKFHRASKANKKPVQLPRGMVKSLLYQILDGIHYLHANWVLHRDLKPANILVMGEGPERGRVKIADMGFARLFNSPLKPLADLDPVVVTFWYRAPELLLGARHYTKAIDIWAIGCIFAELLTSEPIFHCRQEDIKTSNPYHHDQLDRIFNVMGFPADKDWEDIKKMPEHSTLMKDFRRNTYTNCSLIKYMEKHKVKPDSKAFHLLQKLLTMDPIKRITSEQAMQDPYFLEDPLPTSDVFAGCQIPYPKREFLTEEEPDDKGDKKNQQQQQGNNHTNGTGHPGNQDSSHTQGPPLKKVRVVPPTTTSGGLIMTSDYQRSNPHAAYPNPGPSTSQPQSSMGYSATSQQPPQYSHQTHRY
T1 sequence (P24863 whole entry partner): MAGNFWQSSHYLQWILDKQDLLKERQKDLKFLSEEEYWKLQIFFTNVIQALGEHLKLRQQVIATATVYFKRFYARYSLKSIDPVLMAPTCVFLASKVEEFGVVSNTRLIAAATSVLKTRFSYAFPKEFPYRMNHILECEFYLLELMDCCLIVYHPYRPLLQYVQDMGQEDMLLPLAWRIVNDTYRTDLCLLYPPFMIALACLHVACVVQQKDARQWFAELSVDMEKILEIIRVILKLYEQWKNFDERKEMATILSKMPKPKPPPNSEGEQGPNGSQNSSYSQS

Usually IC50 stands for the concentration that inhibits the measured activity by half. By inhibition is commonly meant the relative decrease from the control value, in per cent. As for `CCOC(=O)c1cnc2cc(Cl)c(F)cc2c1Nc1cccc(S(C)(=O)=O)c1` [5i, Ethyl 7-chloro-6-fluoro-4-((3-(methylsulfonyl)phenyl)amino)quinoline-3-carboxylate], at CDK8/CycC, the IC50 entry is given as “failed to inhibit; also recorded: No inhibition” and the inhibition at 20 µM is 32 ± 0.82%.

With `CCOC(=O)c1cnc2cc(Cl)c(F)cc2c1Nc1cccc(S(N)(=O)=O)c1` [5c, Ethyl 7-chloro-6-fluoro-4-((3-sulfamoylphenyl)amino)quinoline-3-carboxylate], at CDK8/CycC, the 50% inhibitory concentration (IC50) result is “failed to inhibit” and the inhibition at 20 µM turned out to be 37.9 ± 1.31%.

With `CCOC(=O)c1cnc2cc(Cl)c(F)cc2c1Nc1cccc(NS(C)(=O)=O)c1` [5f, Ethyl 7-chloro-6-fluoro-4-((3-(methylsulfonamido)phenyl)amino)quinoline-3-carboxylate], at CDK8/CycC, the concentration for half-maximal inhibition (IC50) entry is “failed to inhibit; also recorded: No inhibition” and the inhibition at 20 µM is 27.2 ± 8.46%.

Regarding `CCOC(=O)c1cnc2ccc(OC)cc2c1Nc1cccc(S(C)(=O)=O)c1` [5h, Ethyl 6-methoxy-4-((3-(methylsulfonyl)phenyl)amino)quinoline-3-carboxylate], on CDK8/CycC, the 50% inhibitory concentration (IC50) entry is recorded as “No inhibition” and the inhibition at 20 µM was 18.7 ± 0.48%.

Take `CN(C)[C@H]1C[C@@]23CC[C@@]4(O2)C(=CC[C@]2(C)[C@@H](c5ccc6ccncc6c5)CC[C@H]24)C=C3[C@@H](O)[C@@H]1O` [cortistatin A]: the “anticancer activity in animal models of AML” value in data set [1] was “exhibited anticancer activity”. Besides, the IC50 in the data set with CDK8 (ATP-competitive, ref Cee et al., 2009, Crown, 2017, Pelish et al., 2015, Rzymski et al., read-out: CDK8 inhibitory activity IC50) is 15 nM.

As to `CCOC(=O)c1cnc2ccc(OC)cc2c1Nc1cccc(S(N)(=O)=O)c1` [5b, Ethyl 6-methoxy-4-((3-sulfamoylphenyl)amino)quinoline-3-carboxylate], the results for the IC50 entry against CDK8/CycC and at CDK8/CycC (read-out: IC50) were “single digit micromolar potency” and 5340 nM, respectively. Moreover, on CDK8/CycC, the inhibition at 20 µM is 63.4 ± 2.31%.

As usually defined, the melting point is the temperature, or range, at which the solid turns liquid. The compound `CCOC(=O)c1cnc2ccc(Br)cc2c1Nc1cccc(S(=O)(=O)NC)c1` [5d, Ethyl 6-Bromo-4-((3-(N-methylsulfamoyl)phenyl)amino)quinoline-3-carboxylate] yielded a melting point of 212.9 to 214.3 °C. For the same compound, the 50% inhibitory concentration (IC50) on CDK8/CycC (read-out: IC50) came to 639 nM. Further, the inhibition at 20 µM at CDK8/CycC turned out to be 88.6 ± 0.97%.

Compound `CCOC(=O)c1cnc2ccc(Br)cc2c1Nc1cccc(S(N)(=O)=O)c1` [5a, Ethyl 6-Bromo-4-(3-sulfamoyl-phenylamino)-quinoline-3-carboxylate] gave a melting point of 235.6 to 237.2 °C. In addition, on CDK8/CycC (CDK8/CycC IC50 of 5a compared with 5d), the “fold decrease in potency relative to 5d” value came out at 6 fold. Also, on CDK8/CycC, the IC50 entry is listed as “single digit micromolar potency” and the inhibition at 20 µM is 83.9 ± 1.83%. Besides, on CDK8/CycC (read-out: IC50), the half-inhibitory concentration (IC50) turned out to be 3980 nM.

`CCOC(=O)c1cnc2ccc(OC)cc2c1Nc1cccc(NS(C)(=O)=O)c1` [5e, Ethyl 6-methoxy-4-((3-(methylsulfonamido)phenyl)amino)quinoline-3-carboxylate]: the IC50 at CDK8/CycC (read-out: IC50) was found to be 1420 nM. For the same compound, on CDK8/CycC, the inhibition at 20 µM was 85.9 ± 0.94%.

As for `CCOC(=O)c1cnc2ccc(Br)cc2c1Nc1cccc(S(C)(=O)=O)c1` [5g, Ethyl 6-Bromo-4-(3-methanesulfonylphenylamino)-quinoline-3-carboxylate], on CDK8/CycC, the IC50 result is “no CDK8/CycC complex inhibitory activity; also recorded: No inhibition” and the inhibition at 20 µM is 22.4 ± 1.02%.

For the compound `CN1CCN(C(=O)c2ccc3cc(CCNc4ncnc5ccc(C#N)cc45)ccc3c2)CC1` [Senexin B], the IC50 in the data set with CDK8 (ref McDermott et al., 2017, Rzymski et al., 2015, read-out: CDK8 modulation IC50) was 24 nM.
